Literature values in US5705486A, “Isolation of novel peptides from green barley leaf extract and use same to inhibit human platelet aggregation” (Hagiwara; Yoshihide, priority 1996, dated 1998).

System: rat anterior pituitary cells
Details: in vitro

Compound: Cc1c(C)c2c(c(C)c1OC(=O)CCC(=O)O)CC[C@@](C)(CCC[C@H](C)CCC[C@H](C)CCCC(C)C)O2 [α-tocopherol succinate]
- release of growth hormone and/or prolactin from rat anterior pituitary cells (Badamchian et al 1994): enhances the release
- prolactin release from rat anterior pituitary cells (Badamchian et al 1995): significant increase
